Measured values: US12486253B2, “Therapeutics for the degradation of mutant BRAF” (C4 THERAPEUTICS, INC., priority 2021, dated 2025)
“Also recorded” adds a separate entry of the source.

Tests used:
Type in all cases: cell-based
[1] = target: T1, BRAF class II mutant G469A (Homo sapiens, UniProt P15056, G469A); assay: Western blot of engineered HEK-293T cells expressing class II mutant G469A; conditions: lentivirus expression
T1 construct: host or cells: HEK-293T, lentiviral expression

[2] = system: phospho-ERK (T202/Y204); assay: HTRF phospho-ERK (T202/Y204) inhibition assay in A375 cells; conditions: Homo sapiens, A-375, 24 hrs, mean of at least n = 3, read-out: pERK IC50
Experimental: A375 (harboring BRAF homozygous V600E mutation) were purchased from ATCC. DMEM Medium without phenol red and supplemented with L-glutamine was purchased from Corning (Corning, NY, USA). Advanced phospho-ERK (Thr202/Tyr204) HTRF assay kits were purchased from Cisbio (Bedford, MA, USA). Cell culture flasks and 384-well microplates were acquired from VWR (Radnor, PA, USA) or Corning (Corning, NY, USA).
Degradation of activated phospho-ERK (T202/Y204) protein was determined based on quantification of FRET signal using the Advanced phospho-ERK (T202/Y204) HTRF assay kit. Test compounds were added to the 384-well plate from a top concentration of 10 μM with 11 points, half log titration in duplicates. A375 cells were added into 384-well plates at a cell density of 8000 cells per well, respectively. The plates were kept at 37° C. with 5% CO2 for 24 hours. Cells treated in the absence of the test compound were the negative control. Positive control was set by wells containing all reagents but no cells. FRET signal was acquired on EnVision™ Multilabel Reader (PerkinElmer, Santa Clara, CA, USA).

[3] = target: BRAF V600E (Homo sapiens, UniProt P15056, V600E); assay: Western blot of BRAF V600E levels in A375 cells; parameters: host or cells: A375
Sequence of BRAF V600E (P15056 whole entry V600E): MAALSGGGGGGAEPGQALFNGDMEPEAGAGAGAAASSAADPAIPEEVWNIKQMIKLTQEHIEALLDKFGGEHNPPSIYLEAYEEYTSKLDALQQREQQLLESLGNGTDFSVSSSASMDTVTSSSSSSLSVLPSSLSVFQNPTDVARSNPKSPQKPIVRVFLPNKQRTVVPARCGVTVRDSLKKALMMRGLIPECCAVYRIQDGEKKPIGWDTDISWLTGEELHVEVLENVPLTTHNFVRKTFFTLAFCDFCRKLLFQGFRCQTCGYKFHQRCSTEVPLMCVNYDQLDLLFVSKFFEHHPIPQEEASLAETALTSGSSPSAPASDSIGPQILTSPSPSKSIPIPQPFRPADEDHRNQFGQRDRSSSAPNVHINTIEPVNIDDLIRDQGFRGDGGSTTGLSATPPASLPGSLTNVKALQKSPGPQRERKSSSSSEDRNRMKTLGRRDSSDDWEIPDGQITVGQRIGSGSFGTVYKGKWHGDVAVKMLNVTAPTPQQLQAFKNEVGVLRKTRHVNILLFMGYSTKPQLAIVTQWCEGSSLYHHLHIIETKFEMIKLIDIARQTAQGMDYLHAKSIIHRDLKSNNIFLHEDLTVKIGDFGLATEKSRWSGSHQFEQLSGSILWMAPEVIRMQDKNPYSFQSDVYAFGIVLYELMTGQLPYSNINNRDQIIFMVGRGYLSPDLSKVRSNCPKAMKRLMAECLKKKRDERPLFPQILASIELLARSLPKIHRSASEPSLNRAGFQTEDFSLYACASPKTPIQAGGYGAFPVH

[4] = target: ARAF (Homo sapiens, UniProt P10398); assay: Global proteomics profiling, JURKAT cells; parameters: endogenous in cells; host or cells: JURKAT, ATCC TIB-152 (A11.2); conditions: 300 nM, 24 hours
Sequence of ARAF (P10398 whole entry): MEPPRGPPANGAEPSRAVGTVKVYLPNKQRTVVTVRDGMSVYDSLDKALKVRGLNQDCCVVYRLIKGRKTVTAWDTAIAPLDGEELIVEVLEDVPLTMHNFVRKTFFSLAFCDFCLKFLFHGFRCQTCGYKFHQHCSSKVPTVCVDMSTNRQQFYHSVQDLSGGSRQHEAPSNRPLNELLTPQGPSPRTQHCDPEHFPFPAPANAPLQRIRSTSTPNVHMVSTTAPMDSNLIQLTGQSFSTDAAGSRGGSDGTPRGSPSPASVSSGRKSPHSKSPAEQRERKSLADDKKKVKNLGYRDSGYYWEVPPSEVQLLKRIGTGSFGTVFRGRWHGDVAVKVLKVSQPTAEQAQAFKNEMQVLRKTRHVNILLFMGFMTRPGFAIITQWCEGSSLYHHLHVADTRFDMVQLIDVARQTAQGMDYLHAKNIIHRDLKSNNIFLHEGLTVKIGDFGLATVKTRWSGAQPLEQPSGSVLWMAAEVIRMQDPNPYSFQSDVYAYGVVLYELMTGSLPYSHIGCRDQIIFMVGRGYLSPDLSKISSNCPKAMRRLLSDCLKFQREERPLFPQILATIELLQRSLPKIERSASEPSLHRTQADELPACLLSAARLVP
Experimental: Each cell line was treated in duplicate with either DMSO or Compound 157 (final concentration 300 nM) for 24 hours in an incubator at 37° C. with 5% CO2. After the 24-hour incubation, cells were harvested, washed twice with PBS, and snap frozen in liquid nitrogen. Samples were re-suspended in lysis buffer [8 M urea, 50 mM HEPES (pH 8.5), 50 mM NaCl, 1× protease inhibitor cocktail] and lysed by sonication at 4° C. with 85% amplitude in a pulse setting with 30 seconds on and 30 seconds off for a total sonication time of 5 minutes. Lysates were centrifuged at maximum speed for 10 minutes at 4° C. and the supernatant collected, reduced for 1 hour at room temperature with 5 mM TCEP, and the cysteine residues were then alkylated with 15 mM iodoacetamide (room temperature, in dark, 30 minutes). Protein content was extracted by methanol-chloroform precipitation and subsequent ice-cold acetone washes. Protein pellets were resuspended in 8 M urea, 50 mM HEPES (pH 8.5) buffer and protein concentrations were measured by BCA assay. […]
For peptide tandem mass tag (TMT) labeling, 100 μg of peptides per sample was prepared at […] concentration in 200 mM HEPES (pH 8.5), 30% acetonitrile (ACN) and each the specific TMT reagent. […] TMT reporter ion intensities were quantified by extracting the signal-to-noise ratio for each. […]

T1 sequence (P15056 whole entry G469A): as the sequence (P15056 whole entry V600E) above, with G469A, E600V counted along it

Compound: CCN(C)S(=O)(=O)Nc1ccc(F)c(Oc2ccc3ncn([C@H]4COC5(CCN(C(=O)CC6(O)CCN(c7cc8c(cc7F)c(N7CCC(=O)NC7=O)nn8C)CC6)CC5)C4)c(=O)c3c2)c1C#N [Compound 157, (3R)-3-[6-[2-cyano-3-[[ethyl(methyl)sulfamoyl]amino]-6-fluorophenoxy]-4-oxoquinazolin-3-yl]-8-[2-[1-[3-(2,4-dioxo-1,3-diazinan-1-yl)-5-fluoro-1-methylindazol-6-yl]-4-hydroxypiperidin-4-yl]acetyl]-1-oxa-8-azaspiro[4.5]decane]
- degradation of class II mutant G469A [1]: capable of degrading
- IC50 [2]: 3.2 nM
- BRAF V600E levels [3]: significantly decreased; also recorded: decrease in a dose dependent manner
- ARAF protein level change [4]: unchanged
